The values below come from patent US20120065123A1, “Synthetic Antibodies” (priority 2009, published 2012).

What all share (assay type): binding
Assay [1] concerns the target T1, Transferrin (Homo sapiens, UniProt P02787). The assay can be described thus: Peptide microarray ranking, labeled transferrin with E. coli lysate competitor. Particulars: for Rank -- prewash: array with organic prewash; for Rank - non-prewash: array without organic prewash. The protocol:
Several polypeptides were identified as candidate affinity elements for synbodies against an arbitrarily chosen protein target, transferrin, by incubating transferrin on the polypeptide microarray in the presence of E. coli lysate competitor. Transferrin was randomly direct-labeled at free amines with Alexa™ 555, and E. coli lysate was randomly direct-labeled at free amines with Alexa™ 647. Three replicate arrays were passivized by applying a mixture of BSA and mercaptohexanol for one hour. The arrays were blocked with unlabelled E. coli lysate for one hour, then washed three times with TBST (0.05% Tween) followed by three times with water. A mixture of labeled transferrin and labeled E. coli lysate was applied to the three replicate arrays and incubated for three hours. The arrays were again washed three times with TBST (0.05% Tween) followed by three times with water, and scanned at 555 nm and 647 nm using an array reader. Polypeptides were ranked as candidates for inclusion as affinity elements of synbodies by computing a score for each polypeptide equal to the mean raw 555 nm intensity over the six replicate features, squared, divided by the mean raw 647 nm intensity over the six replicate features. This simple scoring function tends to favor candidate polypeptides that bind at least moderate affinity, since otherwise the 555 nm intensity would be relatively lower, and that are relatively specific, since otherwise the 647 nm intensity would be relatively higher and contribute to a relatively lower score. Many variations of this ranking and identification process can be used, such as, by way of non-limiting examples, two-color comparisons against other competitors; comparisons with data taken in separate experiments with respect to other targets; and use of scoring functions taking into account other factors, employing other functional relationships, and/or involving statistical analysis and/or preprocessing of data and/or correcting for background fluorescence and/or other factors affecting the accuracy of the measured intensities. Ten polypeptides (Table 1) were identified for further evaluation for use as affinity elements in synbodies by choosing the polypeptides having the highest score (one polypeptide was rejected as difficult to synthesize, so the polypeptides chosen were ten of those having the eleven highest scores).
After preparation of the array in accordance with the methods previously described in Example 2, the array was washed one time for five minutes in 7.33% acetonitrile, 37% isopropanol, 0.55% trifluoroacetic acid, and 55% water. Alexa 555 labeled target protein transferrin was applied, together with Alexa 647 labeled E. coli lysate competitor, to the prewashed array and to an identical array without organic prewash. […] 5,010 on the array without organic prewash, but ranked no. 9601 on the prewashed array. Conversely, peptide TRF-21, shown by SPR analysis to be a relatively strong binder of transferrin, rose in rank from 84 on the non-prewashed array to rank no. 5 on the prewashed array.

The target in assay [2] is T1, Transferrin. In words: SPR solution phase KD of candidate affinity elements, transferrin immobilized (Biacore T100). The conditions noted are these: steady-state response, 25° C., PBST. As to the method:
Transferrin 25 μg/ml in immobilization buffer selected for correct pH was then applied 302 at a flow rate of 5 to 10 μl/min for a contact time of about 5 to 10 minutes, allowing the amine functionality on the transferrin 308 to displace the activated NHS ester and bond to the surface via an amide bond. Finally, ethylene diamine (1M ethylene diamine-HCl at pH 8.5) was applied 304 at a flow rate of 5 to 10 μl/min for a contact time of about 6 to 7 minutes to deactivate any remaining reactive groups on the dextran chip surface. Flow rates and contact times are adjusted as necessary to provide the surface concentration of target desired for the intended application, and may vary by target. In general, for evaluating whether binding occurs, it is preferable to immobilize a relatively large quantity of target, and higher flow rates and/or longer contact times may be used. For determining kinetics, it is preferable to limit the amount of target immobilized so as to minimize rebinding and avidity effects, and lower flow rates and/or contact times may be used.
Candidate affinity elements for the transferrin synbody TRF19, TRF21, TRF23, TRF24, TRF25, and TRF26 were individually evaluated for solution phase KD with respect to transferrin by SPR analysis. Because the off rates for these polypeptides were very high, KD values were estimated by measuring steady-state response for at least five concentrations in a two-fold dilution series, each concentration tested in duplicate. For each experiment, response data were processed using a reference surface to correct for bulk refractive index changes and any non-specific binding. Data were also double referenced using responses from blank running buffer injections. Each experiment was conducted at 25° C. using PBST (0.01M Phosphate Buffered Saline, 0.138M NaCl, 0.0027M KCl, 0.05% surfactant Tween20, pH 7.4) as the running buffer on a Biacore T100 instrument. Analytes were injected for 60 s at a flow rate of 30 μl/min. The antigen surfaces were regenerated with 30 s consecutive pulses of NaOH/NaCl (50 mM NaOH in 1M NaCl) and Glycine (10 mM glycine-HCl, pH 2.5).

The target in assay [3] is T1, Transferrin. The assay can be described thus: SPR steady state affinity of mRNA display clones (Biacore T100). The conditions noted are these: for Kd: steady state affinity model. As to the method:
Five clones (see Table 15) were selected, synthesized and purified by HPLC for characterization by surface plasmon resonance (SPR) (T 100 instrument from Biacore). Transferrin was immobilized using standard NHS/EDC immobilization chemistry according to the methods described in Frostell-Karlsson, A., Remaeus, A., Andersson, K., Borg, P., Hamalainen, M., and Karlsson, R. (2000) J. Med. Chem. 43, resulting in 9758 RU of immobilized protein. HPLC purified peptides were injected over the surface and sensograms were recorded at multiple concentrations (32, 16, 8, 4, 2, 1, 0.5, 0.25, 0.125, and 0.0625 μM). Affinity plots were generated for each peptide and fit using a steady state affinity model.
(In general: In SPR one partner is held on a chip, and binding of the other changes the refractive index at the surface.)

Another assay has as its target TNF-α (Homo sapiens, UniProt P01375). In words: SPR of TNF1 lead and mutant peptides on captured TNF-α (Biacore A100). The conditions noted are these: for Binding ΔG (observed): calculated from dissociation constants; for Predicted Binding ΔG: sum of component contributions, energetic additivity. An excerpt:
Scanning Mutagenesis of the TNF1 Lead Peptide. After lead identification, the next step in the AMPLI algorithm is characterization of point mutations in the lead heteropolymer. Using short peptides makes it chemically feasible to synthesize a significant fraction of the point-mutant space, which can then be screened for enhanced point mutations. For example, all possible point mutations in the 17 randomized positions using all 20 natural amino acids could be synthesized and screened within a single 384-well plate (323 total point-mutants). However, libraries containing all 20 natural amino acids are not required for affinity optimization of protein-protein interactions. A library of TNF1 point-mutants containing all substitutions of the amino acid set {Y, A, D, S, K, N, V, W} in each of the 17 randomized positions (132 unique point-mutants) was synthesized. Tyrosine (Y), alanine (A), aspartic acid (D) and serine (S) were selected because of their effectiveness in producing high affinity interactions when substituted into the complementary-determining regions (CDRs) of synthetic antibodies (Felouse, Proceedings of the National Academy of Sciences 101(34):12467, 2004), lysine (K) was selected to balance the charge in the substitution set, asparagine (N), valine (V) and tryptophan (W) were selected to span the hydropathicity range (Kyte J & Doolittle R F, Journal of Molecular Biology 157(1):105-132, 1982). […] This concentration was used to increase the high-end dynamic range for quantifying enhancing point mutations at the expense of low-end dynamic range for quantifying detrimental point mutations.
Point-mutant libraries were prepared in 96-well stock plates From the stock plate, peptides were diluted to 50 μM concentration in Biacore HBS-EP buffer (GE Healthcare, Piscataway, N.J.) containing 1 mg/ml carboxymethyl-dextran (Sigma-Aldrich, St. Louis, Mo.) to reduce non-specific binding to the CM-5 SPR chip surface. TNF-α was captured on a CM-5 chip surface at different capture levels on spots 1, 2, 4, and 5 across all four flow cells corresponding to a 40-200 RU range of predicted Rmax binding responses. Spot 3 contained only immobilized neutravidin and served as a reference spot.
Using the prepared 96-well plates and Biacore A100 SPR instrument, four peptides were flowed separately, in parallel, through the four flow cells over all 4 TNF-α spots and the neutravidin reference spot, with a 60 second association phase and 300 second dissociation phase. SPR sensorgrams were recorded for each peptide response with all 4 TNF-α spots and the neutravidin reference spot across the four flow cells on the SPR chip. Surface regeneration was performed after every 12 injections in each flow cell with Biacore Glycine 2.5 regeneration solution (GE Healthcare, Piscataway, N.J.). Point-mutant reference subtracted, peptide molecular weight adjusted, responses at the late binding region of the sensorgram (a few seconds before dissociation) were compared to the response of the TNF1 lead
Purified point-mutant affinities were measured on the Biacore A100 using SPR equilibrium binding response across a series of peptide concentrations on an SPR chip with TNF-α captured as described above.
These sequences were synthesized and purified using standard solid-phase FMOC synthesis and HPLC purification.

Where [4] appears, read: SPR equilibrium binding response, read-out: Kd (observed).
Setting [5] is: energetic additivity of component mutations, read-out: Predicted Kd.

Broadly, the Kd is a measure of binding affinity in units of concentration.

Where two headings read alike, the source gives them in different places. Where no end group is shown, it is not given here.

TNF-α, sequence (P01375 77-233 limits assumed, species assumed): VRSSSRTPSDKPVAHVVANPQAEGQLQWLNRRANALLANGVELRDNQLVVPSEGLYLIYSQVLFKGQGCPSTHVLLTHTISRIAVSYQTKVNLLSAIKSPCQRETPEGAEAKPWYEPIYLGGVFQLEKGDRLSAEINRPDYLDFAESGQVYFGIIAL
T1 sequence (P02787 20-698): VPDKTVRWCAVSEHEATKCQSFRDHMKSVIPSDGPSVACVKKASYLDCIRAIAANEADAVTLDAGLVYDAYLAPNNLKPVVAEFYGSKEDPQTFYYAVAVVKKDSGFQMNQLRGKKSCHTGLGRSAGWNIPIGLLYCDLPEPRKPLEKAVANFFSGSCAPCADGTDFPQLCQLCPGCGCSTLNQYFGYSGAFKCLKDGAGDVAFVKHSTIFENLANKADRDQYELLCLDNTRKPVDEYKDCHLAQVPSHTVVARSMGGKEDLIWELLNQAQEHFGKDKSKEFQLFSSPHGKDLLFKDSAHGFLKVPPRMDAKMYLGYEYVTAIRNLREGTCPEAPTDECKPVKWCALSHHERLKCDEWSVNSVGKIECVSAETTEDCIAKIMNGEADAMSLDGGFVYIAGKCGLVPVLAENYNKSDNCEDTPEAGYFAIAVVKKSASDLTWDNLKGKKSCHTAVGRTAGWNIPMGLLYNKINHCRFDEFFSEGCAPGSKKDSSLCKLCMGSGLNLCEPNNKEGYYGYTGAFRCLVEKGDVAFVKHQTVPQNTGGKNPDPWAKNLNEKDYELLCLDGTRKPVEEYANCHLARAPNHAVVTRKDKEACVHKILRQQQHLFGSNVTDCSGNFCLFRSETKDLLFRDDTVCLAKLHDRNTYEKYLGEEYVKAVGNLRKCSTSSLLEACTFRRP

At Transferrin [1], SVKPWRPLITGNRWLNSGSC [TRF24] showed a Rank -- prewash of 958 and a Rank - non-prewash of 71. For the same sequence, at Transferrin [2], the Kd was ~50 µM.
On Transferrin [3], GHKVVPQRQMRHAYNRNGSC [TBPL025] came in with a dissociation constant Kd of 150 µM.
In the assay with Transferrin [1], HAYKGPGDMRRFNHSGMGSC [TRF22] gave a Rank -- prewash of 61 and a Rank - non-prewash of 711.
On to FERYPLMMPWSFLQSRQGSC [Synbody D4Y], for which, on TNF-α, the “Component Binding ΔG Contribution” value was -0.74 ± 0.10 kcal/mol, the “Kd Fold-Change Relative to Lead” value is given as 3.6 ± 0.6 and the “Binding ΔG (observed)” value is -5.95 ± 0.06 kcal/mol. Also, at TNF-α (setting [4]), the dissociation constant (Kd) was 44 ± 4.8 µM.
GHKVVPQRQIRHAYNRYGSC [TBPL005] displayed an equilibrium dissociation constant (Kd) at Transferrin [3] of 150 µM.
Turning to APYAPQQIHYWSTLGFKGSC [TRF25], on Transferrin [1], the Rank -- prewash turned out to be 603 and the Rank - non-prewash is reported as 736. On Transferrin [2], the Kd is ~60 µM.
In the case of AHKVVPQRQMRHAYSRYGSC [TBPM023], at Transferrin [3], the “fold improvement of affinity in comparison to TRF26” value is “more than 10 fold” and binding was characterised by a dissociation constant (Kd) of 11.6 µM.
With GQTQFAMHRFQQWYKIKGSC [TRF20], in the assay with Transferrin [1], the Rank -- prewash turned out to be 289 and the Rank - non-prewash was 18.
Take FERYPLKMPWSFLQSRQGSC [D4Y + M7K]: on TNF-α, the “Kd Fold-Change Relative to Lead” value was 9.4 ± 1.6, the “Binding ΔG (observed)” value was -6.54 ± 0.07 kcal/mol and the “Predicted Binding ΔG” value is -6.66 ± 0.25 kcal/mol. Also, on TNF-α (setting [4]), the Kd worked out at 17 ± 1.9 µM. Besides, the Kd on TNF-α (setting [5]) is 8.5 to 20 µM.
Turning to LDPLFNTSIMVNWHRWMGSC [TRF27], in the assay with Transferrin [1], the Rank -- prewash turned out to be 3325 and the Rank - non-prewash is recorded as 1289.
For FERDPLMMPWKFLQSRQGSC [Synbody S11K], at TNF-α, the “Component Binding ΔG Contribution” value was -0.82 ± 0.13 kcal/mol, the “Kd Fold-Change Relative to Lead” value amounted to 3.9 ± 0.9 and the “Binding ΔG (observed)” value was -6.03 ± -.10 kcal/mol. Moreover, the Kd on TNF-α (setting [4]) was 40 ± 7.2 µM.
On Transferrin [1], QYHHFMNLKRQGRAQAYGSC [TRF21] yielded a Rank -- prewash of 5 and a Rank - non-prewash of 84. For the same sequence, the Kd on Transferrin [2] is ~60 µM.
Consider FERDPLMMPWSFLQSRQGSC [TNF1], for which the “Binding ΔG (observed)” value at TNF-α was -5.21 ± 0.07 kcal/mol.
Regarding FERSYLMMPWKFLQSRQGSC [D4S + P5Y + S11K], at TNF-α, the “Kd Fold-Change Relative to Lead” value came to 23 ± 3.2, the “observed binding energy difference to the D4S+P5Y+M7K+S11K quadruple mutant” value was -0.94 ± 0.12 kcal/mol, the “Binding ΔG (observed)” value is -7.03 ± 0.04 kcal/mol and the “Predicted Binding ΔG” value is -7.38 ± 0.19 kcal/mol. The Kd on TNF-α (setting [4]) worked out at 7 ± 0.5 µM. Moreover, the Kd at TNF-α (setting [5]) was 2.8 to 5.3 µM.
Consider KEDNPGYSSEQDYNKLDGSC [TRF19], for which, on Transferrin [1], the Rank -- prewash is 9601 and the Rank - non-prewash was determined as 5010. The Rank - non-prewash on Transferrin [1] (listed as TRF-19) is recorded as 5,010. Besides, the equilibrium dissociation constant (Kd) on Transferrin [2] is ~150 µM.
In the case of FERYPLMMPWKFLQSRQGSC [D4Y + S11K], at TNF-α, the “Kd Fold-Change Relative to Lead” value was 17 ± 2.5. The Kd on TNF-α (setting [4]) was 9.3 ± 0.7 µM; at TNF-α (setting [5]), 8 to 15 µM. In addition, the “Binding ΔG (observed)” value on TNF-α was -6.67 ± 0.05 kcal/mol.
